Values of other authors, collected in publication PMC6429159, “Evolution and Biological Evaluation of Matrinic Derivatives with Amantadine Fragments As New Anti-Influenza Virus Agents” (Molecules, 2019).

Test system: influenza virus A/hanfang/359/95 (H3N2)
Design: method as in PMID 29473520
Settings: lead 1, value of previous study; read-out: Anti-H3N2 IC50; cited from earlier work

For CCCCC1C2CCCN3CCCC(CN1Cc1ccc(C(=O)O)cc1)C23 (stereo not shown) [Compound 1, 12N-p-carboxybenzyl matrinic butane], the IC50 is listed as 16.2 µM.
